The term IC50 denotes the point on the concentration scale where inhibition reaches its midpoint. As usually defined, the EC50 is the midpoint of the concentration-response curve.

Converted amounts (≈) assume the structure as drawn. Where two headings read alike, the source gives them in different places.

Test [1] has as its system human foreskin fibroblast cells. As to the kind of experiment: Toxicity run with the HCMV assay, human foreskin fibroblast cells. The test is classed as cell-based. As to conditions: Table II. How it is done: (§1) [table] […] The media from the wells is then aspirated and 2 mL of each drug concentration is then added to each well. The cells are then incubated in a CO2 incubator at 37° C. for 72 h. At the end of this time, the media-drug solution is removed and the cells washed. […] The cell-media mixture is then pipetted up and down vigorously to break up the cell suspension, and 0.2 mL of the mixture is added to 9.8 mL of Isoton III and counted using a Coulter Counter. Each sample is counted three times with three replicate wells per sample. The procedure for plating cells and adding drug is the same as for the MTT Assay. After drug addition, the plates are incubated for seven days in a CO2 incubator at 37° C. […] This is incubated in the CO2 incubator for one hour. The dye is aspirated and the cells are washed using a Nunc Plate Washer. […] The plates are rotated for 15 minutes and the optical densities are read at 550 nm on a plate reader.

The next test concerns VZV. Description: VZV plaque reduction assay in human foreskin fibroblast cells. It counts as cell-based, varicella zoster virus. The settings on record: Table II. On the procedure:
Two days prior to use, HFF cells are plated into six-well plates and incubated at 37° C. with 5% CO2 and 90% humidity. On the date of assay, the drug is made up at twice the desired concentration in 2x MEM and then serially diluted 1:5 in 2x MEM using six concentrations of drug. The initial starting concentration is usually 200 gg/mL down to 0.06 μg/mL. The virus to be used is diluted in MEM containing 10% FBS to a desired concentration which will give 20-30 plaques per well. The media is then aspirated from the wells and 0.2 mL of virus is added to each well in duplicate with 0.2 mL of media being added to drug toxicity wells. The plates are then incubated for one hour with shaking every fifteen minutes. After the incubation period, an equal amount of 1% agarose was added to an equal volume of each drug dilution. This will give final drug concentrations beginning with 100 μg/mL and ending with 0.03 μg/mL and a final agarose overlay concentration of 0.5%. The drug agarose mixture is applied to each well in 2 mL volume and the plates then incubated for three days, after which the cells were stained with a 1.5% solution of neutral red. At the end of 4-6hr incubation period, the stain is aspirated, and plaques counted using a stereomicroscope at lOx magnification.
The procedure is essentially the same as for the HSV plaque assay described above with two exceptions:
1. After addition of the drug, the plates are incubated for ten days.
2. On days three and six, an additional 1 mL overlay with equal amounts of 2x MEM and 1% agarose are added.
A general note: In a plaque reduction assay, fewer plaques than in the control indicate reduced infectivity or spread.

Test [2] deals with human foreskin fibroblast cells. As to the kind of experiment: Toxicity run with the VZV assay, human foreskin fibroblast cells. The test is classed as cell-based. As to conditions: Table II. On the procedure:
as §1

In the next test the test system is HCMV. As to the kind of experiment: HCMV semi-automated CPE-inhibition assay in human foreskin fibroblast cells. It counts as cell-based, human cytomegalovirus. The settings on record: Table II.
Another test has as its system HBV. As to the kind of experiment: HBV replication in cultures of 2.2.15 cells, extracellular HBV virion DNA (primary assay). The settings on record: read-out: HBV EC50.
In a further test the test system is EBV. Description: EBV assay: superinfection of Raji or Daudi cells with P3HR-1, immunofluorescence for EA and VCA. The test is classed as cell-based, Epstein-Barr virus. The settings on record: Table II. The text has this:
There are two prototypes of infectious EBV. One is exemplified by the virus derived from supernatant fluids of the P3HR-1cell line. This cell line produces nontransforming virus that causes the production of early antigen (EA) after primary infection or superinfection of B cell lines. The other prototype is exemplified by the B-95-8 virus. This virus immortalized cord blood lymphocytes and induced tumors in marmosets.
The virus used in our assays is P3HR-1.
Ramos is an exceptional B cell line derived from Burkitt's lymphoma tumor but containing no detectable EBV genome copies and is EBNA negative. Ramos/AW was obtained by in vitro infection of Ramos with the P3HR-1 virus and contains one resident EBV genome copy/cell. Raji is a Burkitt's lymphoma cell line containing 60 EBV genomes/cell, and will be the primary cell used for screening antiviral activity against EBV EA expression. Daudi is a low level producer that contains 152 EBV genome copies/cell. It spontaneously expresses EBV EA in 0.25%-0.5% of the cells. It will be used in follow-up studies to confirm activity. These cell lines respond to superinfection by EBV by expressing EA(D), EA(R), and VCA. All cell lines are maintained in RPMI-1640 medium supplemented by 10% FCS, L-glutamine and 100 μg/mL gentamicin. The cultures are fed twice weekly and the cell concentration adjusted to 3×10^5/mL. The cells are kept at 37° C. in a humidified atmosphere with 5% CO2.
Cells are infected with the P3HR-1 strain of EBV and the drugs to be tested are added after adsorption (45 minutes at 37° C.) and washing of the cell cultures. The cultures are incubated for two days in complete medium to allow viral gene expression. Following the 48 hr incubation period, the number of cells of each sample are counted and smears made. Monoclonal antibodies to the different EA components and VCA are then added to the cells incubated and washed. This is followed by a fluorescein conjugated rabbit anti-mouse Ig antibody; and the number of fluorescence positive cells in the smears are counted. The total number of cells in the cultures positive for EA or VCA are then calculated and compared.

In the next test the test system is Raji or Daudi cells. Description: Toxicity run with the EBV assay. The test is classed as cell-based, human. As to conditions: Table II. The text has this: IC50 (50% inhibitory concentration) is the concentration required to inhibit cell proliferation by 50%
For a further test, the system named is 2.2.15 cells. As to the kind of experiment: Toxicity in 2.2.15 cells, neutral red dye uptake. The test is classed as cell-based, human. As to conditions: Table II, read-out: HBV IC50. How it is done: Cells of 2.2.15 were grown to confluence in 96-well flat-bottomed tissue culture plates and treated with compounds (in 0.2 mL culture medium/well) as described above. Four concentrations of each compound were assayed, each in triplicate cultures, in 3- to 10-fold steps. Untreated control cultures were maintained on each 96-well plate. On each 96-well plate, wells containing no cells were used to correct for light scattering.

The subject of another test is CEM-SS cells. As to the kind of experiment: CEM-SS MTT assay, cytotoxicity (Table I). The test is classed as cell-based, human. For orientation: Tetrazolium assays rely on reduction of a dye to a coloured formazan, in cell work by metabolically active cells.
For a further test, the system named is HIV-1. As to conditions: CEM-SS MTT assay.
Test [3] deals with HCMV isolates Towne, AD169, E. Mann, Coffman, C9208. As to the kind of experiment: Anti-CMV plaque reduction assay against various laboratory and clinical isolates (Example 40). The test is classed as cell-based, human cytomegalovirus. On the procedure: On the date of assay, the drug is made up at twice the desired concentration in 2x MEM and then serially diluted 1:5 in 2x MEM using six concentrations of drug. The initial starting concentration is usually 200 gg/mL down to 0.06 μg/mL. […] The media is then aspirated from the wells and 0.2 mL of virus is added to each well in duplicate with 0.2 mL of media being added to drug toxicity wells. The plates are then incubated for one hour with shaking every fifteen minutes. […] This will give final drug concentrations beginning with 100 μg/mL and ending with 0.03 μg/mL and a final agarose overlay concentration of 0.5%. The drug agarose mixture is applied to each well in 2 mL volume and the plates then incubated for three days, after which the cells were stained with a 1.5% solution of neutral red. At the end of 4-6hr incubation period, the stain is aspirated, and plaques counted using a stereomicroscope at lOx magnification. The procedure again is nearly the same as for HSV with a few minor changes. […] The assay is incubated for 14 days with the additional 1 mL overlays being applied on days four and eight. The procedure for the liquid overlay plaque assay is similar to that using the agarose overlay. The procedure for adding the virus is the same as for the regular plaque assay. The drugs are made up in a concentration to be used in MEM with 2% FBS. The drugs are not made up at 2x concentration as in the previous assays but are made up at the desired concentration. For HSV-1 and HSV-2 assays, an antibody preparation obtained from Baxter Health Care Corporation is diluted 1:500 and added to the media that the drug is diluted in. For CMV and VZV, no antibody in the overlay is utilized. For the CMV assay, additional medium without new drug is added on day five and allowed to incubate for a total of 10 days. For VZV, additional medium is added on day five and incubated for a total of 10 days. At the end of the incubation period for all of the assays, 2 mL of 1:10 dilution of stock neutral is added to each well incubated for six hours. The liquid is then aspirated off and plaques enumerated using a stereomicroscope. Five calanolide analogues, prepared as described above, were further evaluated for their anti-HCMV activity in plaque reduction assay against various laboratory and clinical isolates (Towne, AD 169, E. Mann, Coffinan, and […]).

Take `CCCc1cc(=O)oc2c3c(c4c(c12)OC(C)(C)C=C4)OC(C)(C)C(C)C3=O` (racemic) [(±)-15b, (±)-10,11-Dihydro-6,6,10,10,11-pentamethyl-4-propyl-2H, 6H, 12H-benzo[1,2-b:3,4-b′:5,6-b″]tripyran-2,12-dione]: the concentration for half-maximal inhibition (IC50) in test [1] (Homo sapiens, Fibroblast) is 52.3 µg/mL (≈ 137 µM); in [2] (Homo sapiens, Fibroblast), 66.7 µg/mL (≈ 174 µM); in the test on Raji or Daudi cells (Homo sapiens), more than 50 µg/mL; in the test on 2.2.15 cells (Homo sapiens) it was 307 µM; with CEM-SS cells (Homo sapiens) it was 21 µM. Also, the EC50 in the test on VZV (Human alphaherpesvirus 3, Fibroblast) is more than 20 µg/mL; with HCMV (Human betaherpesvirus 5, Fibroblast) it was more than 20 µg/mL; in the test on HBV (Hepatitis B virus) it was more than 10 µM; in the test on EBV (human gammaherpesvirus 4), more than 50 µg/mL.

`CCCc1cc(=O)oc2c3c(c4c(c12)OC(C)(C)C=C4)OC(CC)C(C)C3=O` (racemic) [(±)-15c, (±)-10,11-trans-10,11-Dihydro-10-ethyl-4-propyl-6,6,11-trimethyl-2H,6H,12H-benzo[1,2-b:3,4-b ″]tripyran-2,12-dione]: the “HCMV IC50” value in test [1] came out at 77.6 µg/mL. In the test with HIV-1, the “Maximum Protection (%)” value is reported as 47%. For the same compound, the “VZV EC50” value with VZV is more than 20 µg/mL. Moreover, the “VZV IC50” value in test [2] came out at 68.0 µg/mL. Besides, the “HCMV EC50” value with HCMV is more than 20 µg/mL. Besides, the EC50 in the test on HBV (Table II) is more than 10 µM. Further, the “EBV EC50” value with EBV is more than 50 µg/mL. For the same compound, the “EBV IC50” value in the test on Raji or Daudi cells was more than 50 µg/mL. The 50% inhibitory concentration (IC50) in the test on 2.2.15 cells was 152 µM; in the test with CEM-SS cells, 6.8 µM.

For the compound `CCCc1cc(=O)oc2c3c(c4c(c12)OC(C)(C)C=C4)O[C@@H](C)[C@H](C)[C@@H]3O` [(−)-calanolide B, (-)-Calanolide B], in test [1], the “HCMV IC50” value amounted to 78.4 µg/mL. Also, the “VZV EC50” value in the test on VZV was more than 4.0 µg/mL. Also, the “VZV IC50” value in test [2] was 20.0 µg/mL. The “HCMV EC50” value in the test on HCMV worked out at 2.6 µg/mL. The EC50 was more than 10 µM with HBV (Table II); 3.16 µM in test [3] (isolate AD169); 2.01 µM in [3] (isolate C9208); 3.18 µM in test [3] (isolate Coffman); 3.16 µM in [3] (isolate E. Mann); 3.2 µM in test [3] (isolate Towne). Further, in the test on EBV, the “EBV EC50” value is more than 50 µg/mL. In addition, in the test with Raji or Daudi cells, the “EBV IC50” value is more than 50 µg/mL. Further, the half-inhibitory concentration (IC50) in the test with 2.2.15 cells was 1000 µM.

As to `CCCc1cc(=O)oc2c3c(c4c(c12)OC(C)(C)CC4)OC(C)C(C)C3=O` (racemic) [(±)-18a, (±)-10,11-trans4-Propyl-7,8,10,11-tetrahydro-6,6,10,11-tetramethyl-2H,6H,12H-benzo [1,2-b:3,4-b′5,6-b″]tripyran-2,12-dione], in test [1], the “HCMV IC50” value is 19.5 µg/mL. The 50% effective concentration (EC50) in the test with HIV-1 was 2.47 µM; in the test with HBV (Table II) it was more than 10 µM. Also, the “Maximum Protection (%)” value in the test on HIV-1 amounted to 60%. For the same compound, in the test with VZV, the “VZV EC50” value amounted to 15.4 µg/mL. Moreover, the “VZV IC50” value in test [2] is 33.3 µg/mL. Besides, in the test with HCMV, the “HCMV EC50” value is more than 4.0 µg/mL. For the same compound, the “EBV EC50” value with EBV is 24.5 µg/mL. Besides, the “EBV IC50” value with Raji or Daudi cells is more than 50 µg/mL. For the same compound, the IC50 in the test with 2.2.15 cells came to 88 µM; in the test on CEM-SS cells it was 9.19 µM.

`CCCc1cc(=O)oc2c3c(c4c(c12)OC(C)(C)CC4)OC(C)C(C)C3=O` (single isomer, unassigned; (+)) [(+)-18a]: the “HCMV IC50” value in test [1] was more than 100 µg/mL. Moreover, in the test on VZV, the “VZV EC50” value was more than 100 µg/mL. The “VZV IC50” value in test [2] is more than 100 µg/mL. Moreover, the “HCMV EC50” value in the test with HCMV is more than 100 µg/mL. Besides, the EC50 in the test with HBV (Table II) is more than 10 µM. Also, in the test with EBV, the “EBV EC50” value was more than 50 µg/mL. Besides, in the test on Raji or Daudi cells, the “EBV IC50” value was more than 50 µg/mL. The IC50 in the test with 2.2.15 cells was 88 µM.

The values are drawn from US20020013478A1, “Calanolide analogues and methods of their use” (Sarawak Medichem Pharmaceuticals,Inc., priority 1994, published 2002).
